Reference: patent US9340590B2 (priority 2011, dated 2016)
Positions of bridges follow the written chain, without caps; N, C: chain ends. Non-standard residues stand in square brackets, D forms with d. Residues, ends and D or L forms follow the SMILES beside them. Groups on a side chain read outwards from the residue. Pra = C#CC[C@H](N)C(=O)O; Abu = CC[C@H](N)C(=O)O

Key:
Assay in all cases: cell-based
hNav1.3 = hNav1.3 (Homo sapiens, UniProt Q9NY46); details: IonWorks Quattro, use-dependent block, hNav1.3; read-out: IWQ Use Nav1.3
Chain of hNav1.3 (Q9NY46 whole entry, looked up): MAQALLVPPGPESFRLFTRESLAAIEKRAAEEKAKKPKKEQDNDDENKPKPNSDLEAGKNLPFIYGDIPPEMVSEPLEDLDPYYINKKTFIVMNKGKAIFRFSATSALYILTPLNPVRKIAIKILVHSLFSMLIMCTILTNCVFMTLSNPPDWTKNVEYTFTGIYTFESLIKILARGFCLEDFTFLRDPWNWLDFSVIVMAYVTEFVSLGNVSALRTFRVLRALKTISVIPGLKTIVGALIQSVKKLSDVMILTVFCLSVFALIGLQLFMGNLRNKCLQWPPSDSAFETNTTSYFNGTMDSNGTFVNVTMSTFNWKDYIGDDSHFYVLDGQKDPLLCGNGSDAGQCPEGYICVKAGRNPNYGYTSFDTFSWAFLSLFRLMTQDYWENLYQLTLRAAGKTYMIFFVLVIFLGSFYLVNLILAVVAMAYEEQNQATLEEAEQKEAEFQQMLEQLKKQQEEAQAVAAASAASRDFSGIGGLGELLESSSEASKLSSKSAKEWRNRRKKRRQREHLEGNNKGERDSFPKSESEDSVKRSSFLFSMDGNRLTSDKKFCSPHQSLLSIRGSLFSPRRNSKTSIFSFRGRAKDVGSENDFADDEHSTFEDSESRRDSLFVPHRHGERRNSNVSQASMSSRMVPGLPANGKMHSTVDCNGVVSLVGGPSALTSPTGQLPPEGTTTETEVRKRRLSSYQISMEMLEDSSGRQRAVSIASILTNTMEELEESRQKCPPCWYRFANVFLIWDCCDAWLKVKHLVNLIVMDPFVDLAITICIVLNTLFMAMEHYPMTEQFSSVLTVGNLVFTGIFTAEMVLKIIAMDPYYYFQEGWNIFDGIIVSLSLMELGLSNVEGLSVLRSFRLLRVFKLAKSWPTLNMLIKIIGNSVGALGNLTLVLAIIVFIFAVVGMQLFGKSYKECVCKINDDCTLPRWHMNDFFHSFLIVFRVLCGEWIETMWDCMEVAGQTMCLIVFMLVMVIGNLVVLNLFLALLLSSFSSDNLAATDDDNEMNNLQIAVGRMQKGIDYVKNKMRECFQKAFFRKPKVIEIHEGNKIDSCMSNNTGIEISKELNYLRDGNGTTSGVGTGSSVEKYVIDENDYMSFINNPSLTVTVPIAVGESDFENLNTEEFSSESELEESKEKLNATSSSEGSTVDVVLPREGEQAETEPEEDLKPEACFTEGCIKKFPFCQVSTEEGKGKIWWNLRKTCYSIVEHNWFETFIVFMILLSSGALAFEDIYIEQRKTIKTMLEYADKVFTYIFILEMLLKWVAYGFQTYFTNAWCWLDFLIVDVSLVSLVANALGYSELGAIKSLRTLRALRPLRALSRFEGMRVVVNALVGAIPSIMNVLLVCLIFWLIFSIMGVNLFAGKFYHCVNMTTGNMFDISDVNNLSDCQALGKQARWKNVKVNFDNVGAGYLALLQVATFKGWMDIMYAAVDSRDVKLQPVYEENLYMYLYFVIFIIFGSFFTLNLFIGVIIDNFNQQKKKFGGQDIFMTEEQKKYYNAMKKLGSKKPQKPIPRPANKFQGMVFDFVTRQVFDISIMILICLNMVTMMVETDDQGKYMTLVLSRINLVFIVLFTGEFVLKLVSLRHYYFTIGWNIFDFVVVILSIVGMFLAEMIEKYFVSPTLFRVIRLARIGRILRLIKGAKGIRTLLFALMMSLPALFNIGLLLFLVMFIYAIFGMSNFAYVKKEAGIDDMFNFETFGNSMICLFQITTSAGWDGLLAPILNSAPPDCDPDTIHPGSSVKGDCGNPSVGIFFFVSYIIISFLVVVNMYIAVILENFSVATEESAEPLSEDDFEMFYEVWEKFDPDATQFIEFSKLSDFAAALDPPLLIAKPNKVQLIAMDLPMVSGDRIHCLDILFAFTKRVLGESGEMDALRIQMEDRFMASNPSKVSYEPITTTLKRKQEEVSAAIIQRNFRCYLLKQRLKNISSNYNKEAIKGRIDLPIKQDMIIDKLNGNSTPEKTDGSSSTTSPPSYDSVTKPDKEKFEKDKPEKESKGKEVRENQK

hNav1.5 = hNav1.5 (Homo sapiens, UniProt Q14524); details: IonWorks Quattro, use-dependent block, hNav1.5; read-out: IWQ Use Nav1.5
Chain of hNav1.5 (Q14524 whole entry, looked up): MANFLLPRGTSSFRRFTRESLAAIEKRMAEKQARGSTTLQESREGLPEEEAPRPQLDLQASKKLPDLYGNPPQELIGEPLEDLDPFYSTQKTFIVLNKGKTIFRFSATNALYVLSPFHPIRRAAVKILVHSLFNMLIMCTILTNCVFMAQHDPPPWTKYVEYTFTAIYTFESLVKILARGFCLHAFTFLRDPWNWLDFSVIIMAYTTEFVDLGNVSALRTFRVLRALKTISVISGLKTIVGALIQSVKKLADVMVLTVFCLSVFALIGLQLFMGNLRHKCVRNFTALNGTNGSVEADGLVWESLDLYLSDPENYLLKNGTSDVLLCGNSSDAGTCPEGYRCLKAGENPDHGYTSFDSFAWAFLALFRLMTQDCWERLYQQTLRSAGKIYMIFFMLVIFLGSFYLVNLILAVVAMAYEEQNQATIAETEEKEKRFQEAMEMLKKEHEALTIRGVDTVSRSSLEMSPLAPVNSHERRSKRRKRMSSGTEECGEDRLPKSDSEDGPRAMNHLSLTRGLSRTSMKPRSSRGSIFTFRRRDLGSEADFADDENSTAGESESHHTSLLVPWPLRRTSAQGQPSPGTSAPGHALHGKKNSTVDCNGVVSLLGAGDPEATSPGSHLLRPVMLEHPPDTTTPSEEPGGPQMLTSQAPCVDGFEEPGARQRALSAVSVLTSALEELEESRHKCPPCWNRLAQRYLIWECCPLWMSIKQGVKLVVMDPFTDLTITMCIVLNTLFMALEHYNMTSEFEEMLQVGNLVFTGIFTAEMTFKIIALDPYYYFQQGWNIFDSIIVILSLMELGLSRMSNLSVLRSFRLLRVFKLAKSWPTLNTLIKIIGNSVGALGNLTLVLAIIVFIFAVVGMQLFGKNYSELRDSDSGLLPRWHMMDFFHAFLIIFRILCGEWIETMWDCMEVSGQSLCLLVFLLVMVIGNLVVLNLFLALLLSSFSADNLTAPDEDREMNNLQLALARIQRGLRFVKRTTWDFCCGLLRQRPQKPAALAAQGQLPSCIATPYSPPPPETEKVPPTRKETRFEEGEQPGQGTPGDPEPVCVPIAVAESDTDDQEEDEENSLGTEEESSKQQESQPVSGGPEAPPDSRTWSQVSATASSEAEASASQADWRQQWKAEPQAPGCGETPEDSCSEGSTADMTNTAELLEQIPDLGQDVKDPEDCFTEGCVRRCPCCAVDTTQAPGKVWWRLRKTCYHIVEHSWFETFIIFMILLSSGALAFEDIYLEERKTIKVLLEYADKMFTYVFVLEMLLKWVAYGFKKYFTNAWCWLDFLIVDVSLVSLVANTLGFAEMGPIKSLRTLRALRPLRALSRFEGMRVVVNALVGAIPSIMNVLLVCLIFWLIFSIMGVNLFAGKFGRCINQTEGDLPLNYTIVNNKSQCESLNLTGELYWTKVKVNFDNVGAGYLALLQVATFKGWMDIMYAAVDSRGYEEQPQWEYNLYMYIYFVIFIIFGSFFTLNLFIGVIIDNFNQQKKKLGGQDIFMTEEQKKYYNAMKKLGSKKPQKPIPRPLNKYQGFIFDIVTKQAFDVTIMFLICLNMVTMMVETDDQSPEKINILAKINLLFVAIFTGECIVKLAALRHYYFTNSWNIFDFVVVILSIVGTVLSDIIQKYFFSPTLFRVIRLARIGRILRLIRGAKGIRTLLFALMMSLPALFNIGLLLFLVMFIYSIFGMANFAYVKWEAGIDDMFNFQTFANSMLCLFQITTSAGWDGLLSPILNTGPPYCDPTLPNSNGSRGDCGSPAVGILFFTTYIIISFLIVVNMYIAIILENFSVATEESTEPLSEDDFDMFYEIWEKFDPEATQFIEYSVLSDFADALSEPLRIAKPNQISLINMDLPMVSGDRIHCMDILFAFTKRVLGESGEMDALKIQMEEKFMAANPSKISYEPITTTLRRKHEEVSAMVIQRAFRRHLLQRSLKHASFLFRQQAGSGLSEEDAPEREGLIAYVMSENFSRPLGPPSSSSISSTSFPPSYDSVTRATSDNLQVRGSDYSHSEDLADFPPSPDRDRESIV

hNav1.7 = hNav1.7 (Homo sapiens, UniProt Q15858); format: cell-based; details: IonWorks Quattro, use-dependent block, hNav1.7; read-out: IWQ Use Nav1.7

**Q.** For CC[C@H](C)[C@@H]1NC(=O)[C@@H]2CSSC[C@@H]3NC(=O)[C@H](C(C)C)NC(=O)[C@H](CC(C)C)NC(=O)[C@H](CC(N)=O)NC(=O)[C@@H]4CCCN4C(=O)[C@H](CCCNC(=N)N)NC(=O)[C@H](CSSC[C@H](NC(=O)[C@@H](N)CC(=O)O)C(=O)N[C@@H](CC(C)C)C(=O)NCC(=O)N[C@@H](C)C(=O)N[C@@H](CCSC)C(=O)N[C@@H](CCCNC(=N)N)C(=O)N[C@@H](CCCCN)C(=O)N2)NC(=O)[C@H](CSSC[C@@H](C(=O)N[C@@H](CCCCN)C(=O)N[C@@H](Cc2ccc(O)cc2)C(=O)N[C@H](C(=O)N[C@@H](Cc2ccccc2)C(N)=O)C(C)C)NC(=O)[C@H](Cc2c[nH]c4ccccc24)NC(=O)[C@H](CCCCN)NC(=O)[C@H](Cc2c[nH]cn2)NC(=O)[C@H](CCC(=O)O)NC(=O)[C@H](CCCNC(=N)N)NC(=O)[C@H](CO)NC3=O)NC(=O)[C@H](CCCCN)NC(=O)[C@H](CC(=O)O)NC(=O)[C@H](CC(N)=O)NC(=O)[C@H](CC(=O)O)NC(=O)[C@@H]2CCCN2C1=O [compound 787] (H-DCLGAMRKCIPDNDKCCRPNLVCSREHKWCKYVF-NH2; disulfide 2-17, 9-23, 16-30), which IC50 (hNav1.3) is on record?
**A.** The IC50 was greater than 5 µM.

**Q.** What about the IC50 (hNav1.5) of the same compound?
**A.** The IC50 was 27.3 µM.

**Q.** What about the IC50 (hNav1.7) of the same compound?
**A.** Its IC50 is greater than 5 µM.

**Q.** Which results are given for CC[C@H](C)[C@@H]1NC(=O)[C@@H]2CSSC[C@@H]3NC(=O)[C@H](C(C)C)NC(=O)[C@H](CC(C)C)NC(=O)[C@H](CC(N)=O)NC(=O)[C@@H]4CCCN4C(=O)[C@H](CCCNC(=N)N)NC(=O)[C@H](CSSC[C@H](NC(=O)[C@@H](N)CC(=O)O)C(=O)N[C@@H](CC(C)C)C(=O)NCC(=O)N[C@@H](C)C(=O)N[C@@H](CCSC)C(=O)N[C@@H](CCCNC(=N)N)C(=O)N[C@@H](CCCCN)C(=O)N2)NC(=O)[C@H](CSSC[C@@H](C(=O)N[C@@H](CCCCN)C(=O)N[C@@H](Cc2ccc(O)cc2)C(=O)N[C@H](C(=O)N[C@@H](Cc2ccccc2)C(N)=O)C(C)C)NC(=O)[C@H](Cc2c[nH]c4ccccc24)NC(=O)[C@H](CCCCN)NC(=O)[C@H](CCC(=O)O)NC(=O)[C@H]([C@@H](C)O)NC(=O)[C@H](CCCNC(=N)N)NC(=O)[C@H](CO)NC3=O)NC(=O)[C@H](CCCCN)NC(=O)[C@H](CC(=O)O)NC(=O)[C@H](CC(N)=O)NC(=O)[C@H](CC(=O)O)NC(=O)[C@@H]2CCCN2C1=O [compound 788] (H-DCLGAMRKCIPDNDKCCRPNLVCSRTEKWCKYVF-NH2; disulfide 2-17, 9-23, 16-30)?
**A.** IC50 (hNav1.3): > 5 µM; IC50 (hNav1.5): 29.7 µM; IC50 (hNav1.7): > 5 µM

**Q.** Which IC50 (hNav1.3) does the source give for CC[C@H](C)[C@@H]1NC(=O)[C@@H]2CSSC[C@@H]3NC(=O)[C@H](C(C)C)NC(=O)[C@H](CC(C)C)NC(=O)[C@H](CC(N)=O)NC(=O)[C@@H]4CCCN4C(=O)[C@H](CCCNC(=N)N)NC(=O)[C@H](CSSC[C@H](NC(=O)[C@@H](N)CC(=O)O)C(=O)N[C@@H](CC(C)C)C(=O)NCC(=O)N[C@@H](C)C(=O)N[C@@H](CCSC)C(=O)N[C@@H](CCCNC(=N)N)C(=O)N[C@@H](CCCCN)C(=O)N2)NC(=O)[C@H](CSSC[C@@H](C(=O)N[C@@H](CCC(=O)O)C(=O)N[C@@H](Cc2ccc(O)cc2)C(=O)N[C@H](C(=O)N[C@@H](Cc2ccccc2)C(N)=O)C(C)C)NC(=O)[C@H](Cc2c[nH]c4ccccc24)NC(=O)[C@H](CCCCN)NC(=O)[C@H](Cc2c[nH]cn2)NC(=O)[C@H]([C@@H](C)O)NC(=O)[C@H](CCCNC(=N)N)NC(=O)[C@H](CO)NC3=O)NC(=O)[C@H](CCCCN)NC(=O)[C@H](CC(=O)O)NC(=O)[C@H](CC(N)=O)NC(=O)[C@H](CC(=O)O)NC(=O)[C@@H]2CCCN2C1=O [compound 789] (H-DCLGAMRKCIPDNDKCCRPNLVCSRTHKWCEYVF-NH2; disulfide 2-17, 9-23, 16-30) here?
**A.** The IC50 was greater than 5 µM.

**Q.** And the IC50 (hNav1.5)?
**A.** The IC50 was 31.8 µM.

**Q.** What about the IC50 (hNav1.7) of the same compound?
**A.** The IC50 was greater than 5 µM.

**Q.** CC[C@H](C)[C@@H]1NC(=O)[C@@H]2CSSC[C@@H]3NC(=O)[C@H](C(C)C)NC(=O)[C@H](CC(C)C)NC(=O)[C@H](CC(N)=O)NC(=O)[C@@H]4CCCN4C(=O)[C@H](CCCNC(=N)N)NC(=O)[C@H](CSSC[C@H](NC(=O)[C@@H](N)CC(=O)O)C(=O)N[C@@H](CC(C)C)C(=O)NCC(=O)N[C@@H](C)C(=O)N[C@@H](CCSC)C(=O)N[C@@H](CCCNC(=N)N)C(=O)N[C@@H](CCCCN)C(=O)N2)NC(=O)[C@H](CSSC[C@@H](C(=O)N[C@@H](CCCCN)C(=O)N[C@@H](Cc2ccc(O)cc2)C(=O)N[C@H](C(=O)N[C@@H](Cc2ccccc2)C(=O)N[C@@H](CCC(=O)O)C(N)=O)C(C)C)NC(=O)[C@H](Cc2c[nH]c4ccccc24)NC(=O)[C@H](CCCCN)NC(=O)[C@H](Cc2c[nH]cn2)NC(=O)[C@H]([C@@H](C)O)NC(=O)[C@H](CCCNC(=N)N)NC(=O)[C@H](CO)NC3=O)NC(=O)[C@H](CCCCN)NC(=O)[C@H](CC(=O)O)NC(=O)[C@H](CC(N)=O)NC(=O)[C@H](CC(=O)O)NC(=O)[C@@H]2CCCN2C1=O [compound 790] (H-DCLGAMRKCIPDNDKCCRPNLVCSRTHKWCKYVFE-NH2; disulfide 2-17, 9-23, 16-30) was tested. Which IC50 (hNav1.3) did it give?
**A.** The IC50 was greater than 5 µM.

**Q.** And the IC50 (hNav1.5)?
**A.** Its IC50 is 28.5 µM.

**Q.** What about the IC50 (hNav1.7) of the same compound?
**A.** The IC50 was greater than 5 µM.

**Q.** C#CC[C@@H]1NC(=O)[C@H](CC(=O)O)NC(=O)[C@@H]2CCCN2C(=O)[C@H]([C@@H](C)CC)NC(=O)[C@@H]2CSSC[C@@H]3NC(=O)[C@H](C(C)C)NC(=O)[C@H](CC(C)C)NC(=O)[C@H](CC(N)=O)NC(=O)[C@@H]4CCCN4C(=O)[C@H](CCCNC(=N)N)NC(=O)[C@H](CSSC[C@H](NC(=O)[C@@H](N)CC(=O)O)C(=O)N[C@@H](CC(C)C)C(=O)NCC(=O)N[C@@H](C)C(=O)N[C@@H](Cc4ccccc4)C(=O)N[C@@H](CCCNC(=N)N)C(=O)N[C@@H](CCCCN)C(=O)N2)NC(=O)[C@H](CSSC[C@@H](C(=O)N[C@@H](CCCCN)C(=O)N[C@@H](Cc2ccc(O)cc2)C(=O)N[C@H](C(=O)N[C@@H](Cc2ccccc2)C(N)=O)C(C)C)NC(=O)[C@H](Cc2c[nH]c4ccccc24)NC(=O)[C@H](CCCCN)NC(=O)[C@H](Cc2c[nH]cn2)NC(=O)[C@H]([C@@H](C)O)NC(=O)[C@H](CCCNC(=N)N)NC(=O)[C@H](CO)NC3=O)NC(=O)[C@H](CCCCN)NC(=O)[C@H](CC(=O)O)NC1=O [compound 793] (H-DCLGAFRKCIPD[Pra]DKCCRPNLVCSRTHKWCKYVF-NH2; disulfide 2-17, 9-23, 16-30) was tested. Which IC50 (hNav1.3) did it give?
**A.** The IC50 was 0.47 µM.

**Q.** And the IC50 (hNav1.5)?
**A.** Its IC50 is 28.6 µM.

**Q.** What about the IC50 (hNav1.7) of the same compound?
**A.** The IC50 was 0.53 µM.

**Q.** What does the source list for C#CC[C@H](NC(C)=O)C(=O)NCCCC[C@@H]1NC(=O)[C@H](CC(=O)O)NC(=O)[C@@H]2CCCN2C(=O)[C@H]([C@@H](C)CC)NC(=O)[C@@H]2CSSC[C@@H]3NC(=O)[C@H](C(C)C)NC(=O)[C@H](CC(C)C)NC(=O)[C@H](CC(N)=O)NC(=O)[C@@H]4CCCN4C(=O)[C@H](CCCNC(=N)N)NC(=O)[C@H](CSSC[C@H](NC(=O)[C@@H](N)CC(=O)O)C(=O)N[C@@H](CC(C)C)C(=O)NCC(=O)N[C@@H](C)C(=O)N[C@@H](Cc4ccccc4)C(=O)N[C@@H](CCCNC(=N)N)C(=O)N[C@@H](CCCCN)C(=O)N2)NC(=O)[C@H](CSSC[C@@H](C(=O)N[C@@H](CCCCN)C(=O)N[C@@H](Cc2ccc(O)cc2)C(=O)N[C@H](C(=O)N[C@@H](Cc2ccccc2)C(N)=O)C(C)C)NC(=O)[C@H](Cc2c[nH]c4ccccc24)NC(=O)[C@H](CCCCN)NC(=O)[C@H](Cc2c[nH]cn2)NC(=O)[C@H]([C@@H](C)O)NC(=O)[C@H](CCCNC(=N)N)NC(=O)[C@H](CO)NC3=O)NC(=O)[C@H](CCCCN)NC(=O)[C@H](CC(=O)O)NC1=O [compound 794] (H-DCLGAFRKCIPDK([Pra-Ac])DKCCRPNLVCSRTHKWCKYVF-NH2; disulfide 2-17, 9-23, 16-30)?
**A.** IC50 (hNav1.3): 0.7 µM; IC50 (hNav1.5): 37.8 µM; IC50 (hNav1.7): 0.89 µM

**Q.** For C#CC[C@@H]1NC(=O)[C@H](CC(=O)O)NC(=O)[C@@H]2CCCN2C(=O)[C@H]([C@@H](C)CC)NC(=O)[C@@H]2CSSC[C@@H]3NC(=O)[C@H](C(C)C)NC(=O)[C@H](CC(C)C)NC(=O)[C@H](CC(N)=O)NC(=O)[C@@H]4CCCN4C(=O)[C@H](CCCNC(=N)N)NC(=O)[C@H](CSSC[C@H](NC(=O)[C@@H](N)CC(=O)O)C(=O)N[C@@H](CC(C)C)C(=O)NCC(=O)N[C@@H](C)C(=O)N[C@@H](CC(C)C)C(=O)N[C@@H](CCCNC(=N)N)C(=O)N[C@@H](CCCCN)C(=O)N2)NC(=O)[C@H](CSSC[C@@H](C(=O)N[C@@H](CCCCN)C(=O)N[C@@H](Cc2ccc(O)cc2)C(=O)N[C@H](C(=O)N[C@@H](Cc2ccccc2)C(N)=O)C(C)C)NC(=O)[C@H](Cc2c[nH]c4ccccc24)NC(=O)[C@H](CCCNC(=N)N)NC(=O)[C@H](Cc2c[nH]cn2)NC(=O)[C@H](CC(C)C)NC(=O)[C@H](CCCNC(=N)N)NC(=O)[C@H](CO)NC3=O)NC(=O)[C@H](CCCCN)NC(=O)[C@H](CC(=O)O)NC1=O [compound 796] (H-DCLGALRKCIPD[Pra]DKCCRPNLVCSRLHRWCKYVF-NH2; disulfide 2-17, 9-23, 16-30), which IC50 (hNav1.3) is on record?
**A.** The IC50 was 0.48 µM.

**Q.** And the IC50 (hNav1.5)?
**A.** Its IC50 is 36.4 µM.

**Q.** And the IC50 (hNav1.7)?
**A.** Its IC50 is 0.22 µM.

**Q.** Which IC50 (hNav1.3) does the source give for C#CC[C@@H]1NC(=O)[C@H](CC(=O)O)NC(=O)[C@@H]2CCCN2C(=O)[C@H]([C@@H](C)CC)NC(=O)[C@@H]2CSSC[C@@H]3NC(=O)[C@H](C(C)C)NC(=O)[C@H](CC(C)C)NC(=O)[C@H](CC(N)=O)NC(=O)[C@@H]4CCCN4C(=O)[C@H](CCCNC(=N)N)NC(=O)[C@H](CSSC[C@H](NC(=O)[C@@H](N)CC(=O)O)C(=O)N[C@@H](CC(C)C)C(=O)NCC(=O)N[C@@H](CC)C(=O)N[C@@H](CC(C)C)C(=O)N[C@@H](CCCNC(=N)N)C(=O)N[C@@H](CCCCN)C(=O)N2)NC(=O)[C@H](CSSC[C@@H](C(=O)N[C@@H](CCCCN)C(=O)N[C@@H](Cc2ccc(O)cc2)C(=O)N[C@H](C(=O)N[C@@H](Cc2ccccc2)C(N)=O)C(C)C)NC(=O)[C@H](Cc2c[nH]c4ccccc24)NC(=O)[C@H](CCCCN)NC(=O)[C@H](Cc2c[nH]cn2)NC(=O)[C@H]([C@@H](C)O)NC(=O)[C@H](CCCNC(=N)N)NC(=O)[C@H](CO)NC3=O)NC(=O)[C@H](CCCCN)NC(=O)[C@H](CC(=O)O)NC1=O [compound 797] (H-DCLG[Abu]LRKCIPD[Pra]DKCCRPNLVCSRTHKWCKYVF-NH2; disulfide 2-17, 9-23, 16-30) here?
**A.** The IC50 was 0.93 µM.

**Q.** What about the IC50 (hNav1.5) of the same compound?
**A.** Its IC50 is 34 µM.

**Q.** What about the IC50 (hNav1.7) of the same compound?
**A.** Its IC50 is 0.52 µM.
